The source of these data is US6315907A (priority 1997, dated 2001).

SMILES strings stand for the structures.

In the assay the test system is TSST-1. The assay is classed as binding, Staphylococcus aureus.

On to `CCCCCCCCN` [n-octylamine], for which the “adsorption ability for TSST-1” value is on record as “enhanced to a great extent”.
